Source: patent US12419832B2, “Intratumoral delivery of bortezomib” (Cognos Therapeutics, Inc., priority 2018, dated 2025)
Entries after “also recorded” stand apart in the source; their conditions may differ. Like-named read-outs stand apart in the source and are kept apart here.

Experiments:
malignant gliomas / GBM = settings: cited from earlier work
[1] = system: U87 glioma cells implanted intracranially; assay: Orthotopic intracranial glioma model, U87, survival; assay type: in vivo, athymic nude mice; settings: IV 36 μg total
Protocol: (§1) FIGS. 3A-3B. […] Human glioma cells U251 (FIG. 3A) or U87 (FIG. 3B) were implanted intracranially; subsequently, mice were given bortezomib (36 μg total) (square) or vehicle (circle) IV. The brain tumor size was monitored by optical imaging weekly, and animal survival data were analyzed by Kaplan-Meier plot.
(§2) Briefly, athymic nude mice were anesthetized with ketamine and xylazine (10 mg/kg) and fixed into a stereotactic head frame (Harvard Apparatus). A 1.5-mm bur hole was drilled 1 mm anterior to the coronal suture on the right hemisphere and 2 mm lateral from the midline. A Hamilton syringe fixed onto the head frame was used to inject human glioma cells (2×10^5 cells/5 μl) into the right frontal lobe of the brain. The skin incision was then closed with 4-0 silk thread. The appropriate medications were provided to reduce pain.
Seven to 10 days after tumor cell implantation, imaging was used to confirm brain tumor formation. Briefly, mice were anesthetized using 2% isoflurane gas and injected intravenously (IV) with 50 mg/kg of D-Luciferin (Perkin Elmer) and placed into the IVIS Spectrum (Caliper Life Sciences). Analysis was performed with Living Image software (Caliper Life Sciences), in which circular regions of interest drawn over the tumor site were used, and results were reported as total flux (photons/second). […]

[2] = system: human glioma cells (U251, LN229, U87); assay: MTT cytotoxicity assay on glioma cells; assay type: cell-based; settings: Glioma cell, 3 cell lines (U251, LN229, U87), 48 hours, read-out: median inhibitory concentrations (IC50)
Protocol: Glioma cells (U251, LN229, U87) were treated with bortezomib (0-25 nM) for 48 hours. Cell death was evaluated using the MTT assay. O.D.=optical density.
Human glioma cells (U87, U251, and LN229) were cultured in DMEM, supplemented with 10% fetal bovine serum and 1% penicillin-streptomycin, and incubated in 5% CO2. Bortezomib (Velcade) was purchased from the University of Southern California/Norris Comprehensive Cancer Center pharmacy. Bortezomib has been approved by the FDA for clinical use. The sterile 14-day Alzet mini-osmotic pump (model 2002) was used in these experiments. The Alzet mini-osmotic pump has a reservoir volume of 200 μl and a delivery rate of 0.5 μl/hour. The brain infusion kit, which includes the pump and distribution tubing, was purchased from DURECT Corporation.
Glioma cells (5000 cells/well) were seeded in 96-well plates. After 24 hours, bortezomib was added to the cells at different concentrations, and the cells were incubated for 48 hours. The monotetrazolium (MTT) assay was performed according to the manufacturer's protocol (Calbiochem EMD, Millipore). Absorbance was measured using a microtiter plate reader (Molecular Devices) at 490 nm. Percent viability was calculated relative to untreated control cells. All experiments were performed in triplicate.

[3] = system: U87 glioma cells implanted subcutaneously; assay: Subcutaneous glioma xenograft tumor model, U87; assay type: in vivo, athymic nude mice; settings: 0.3 mg/kg (36 μg total), vs vehicle
Protocol: (§3) FIGS. 2A-2B. […] FIG. 2A: Glioma cells (U251) were implanted subcutaneously into athymic nu/nu mice. Fourteen days later, intravenous treatment was initiated: vehicle treatment (circle); bortezomib (36 μg total) (square). Subsequently animals were left untreated for 14 days. […] FIG. 2B: Glioma cells (U87) were implanted subcutaneously in athymic nude mice. Bortezomib was administered at a total dose of 36 μg by intravenous injection beginning on Day 30 post-implantation.
(§4) The animal protocol was approved by the institutional animal care and use committee of the University of Southern California. All mice were maintained in a pathogen-free environment throughout the experiment. For the subcutaneous tumor xenograft model, 5×10^5 human glioma cells (U87, U251, and LN229) suspended in a volume of 50 μl phosphate-buffered saline were implanted into the right flank of 30 athymic nude mice (Harlan, Inc.). Tumors were palpable approximately 2-3 weeks post-implantation. The animals were divided randomly into 5 groups of 6 mice, and treatment was initiated according to protocol.

[4] = system: U251 glioma cells implanted intracranially; assay: Orthotopic intracranial glioma model, U251, survival; assay type: in vivo, athymic nude mice; settings: for median survival time: IT pump, control 23 days
Protocol: as §1
FIG. 4. Bortezomib (BZM) administered intratumorally (IT) is effective in increasing survival. Glioma cells (U251) were implanted intracranially. After 10 days, animals were treated IT with vehicle; bortezomib IV (36 μg total); bortezomib IT (low dose, 0.36 μg total); bortezomib IT (medium dose, 1.2 μg total); and bortezomib IT (high dose, 3.6 μg total). […] CED=convection-enhanced delivery.
as §2
Seven to 10 days after tumor cell implantation, imaging was used to confirm brain tumor formation. Briefly, mice were anesthetized using 2% isoflurane gas and injected intravenously (IV) with 50 mg/kg of D-Luciferin (Perkin Elmer) and placed into the IVIS Spectrum (Caliper Life Sciences). Analysis was performed with Living Image software (Caliper Life Sciences), in which circular regions of interest drawn over the tumor site were used, and results were reported as total flux (photons/second). Based on total flux, animals were randomly divided into experimental groups.
Once tumors were identified, approximately 7 days after intracranial tumor cell implantation, Alzet mini-osmotic pumps were filled with the desired dose of reagent and implanted. A plastic tube primed with the agent was used to connect the infusion kit to the brain. The assembled delivery system was stored at 4° C. overnight before implantation. Bortezomib was delivered into the tumor using the Alzet mini-osmotic pumps.
To anchor the pump to the animal, an incision was made in the scalp alongside the previous surgical scar. The caudal edge of the incision was pulled, and the connective tissues were separated. Subsequently a subcutaneous tunnel was prepared. The Alzet mini-osmotic pump was pushed backward to adjust the location of the brain infusion kit directly above the hole in the skull that had been previously drilled for tumor cell implantation. The infusion kit (plastic tubing) was gently inserted into the formed tumor. The plastic platform end was fixed onto the skull by using instant super glue. The area around the skin incision was sterilized and sutured with 4-0 silk thread. The contents of the Alzet mini-osmotic pump were released into the tumor at a rate of […]. The treatment groups (6 mice per group) were listed as the following: 1) pump-administered vehicle (saline); 2) bortezomib (0.3 mg/kg=36 μg in total) given by intravenous injection; 3) low-dose bortezomib (0.003 mg/kg=0.36 μg in total) intracranial pump delivery; 4) medium-dose bortezomib (0.01 mg/kg=1.2 μg in total) intracranial pump delivery; and 5) high-dose bortezomib (0.03 mg/kg=3.6 μg in total) intracranial pump delivery. In summary, bortezomib was administered for 14 days, either IV at 0.3 mg/kg twice weekly (total 4 injections in 14 days), or continuously into the intracranial tumor bed by using the Alzet mini-osmotic pump. After the treatment was completed (14 days), animals were left untreated until the appearance of neurological and behavioral abnormalities requiring euthanasia. Animals treated with vehicle received saline by Alzet mini-osmotic pump.
Survival data were plotted using the Kaplan-Meier method. […]

20S proteasome = 20S proteasome activity assay on lysates of tumor-bearing brains; assay type: in vivo, mice; settings: IT 3.6 μg total, Alzet pump
Protocol: FIG. 5. […] Animals were treated by intratumorally administration of bortezomib (3.6 μg total) using the Alzet pump. After 5, 7 or 10 days, animals were euthanized, tumor-bearing brains were harvested, and lysates prepared for the proteasome activity assay. Control values were obtained from vehicle-treated brains at 5, 7, and 10 days.
Brain lysates were prepared by homogenization of tumor-bearing brains in phosphate-buffered saline. Supernatants were collected by centrifugation at 12,000 rpm for 15 minutes at 4° C. Total protein concentration was measured by the BCA protein assay, and 100 μg of total protein was used to measure proteasome activity. The 20S proteasome assay kit (EMD Millipore) was used according to manufacturer's instructions. The assay is based on detection of fluorophore 7-amino-4-methylcoumarin (AMC) after cleavage from the labeled substrate LLVYAMC. The free AMC fluorescence was quantified using 380-nm excitation and 460-nm emission filters.

[5] = system: U251 glioma cells implanted subcutaneously; assay: Subcutaneous glioma xenograft tumor model, U251; assay type: in vivo, athymic nu/nu mice; settings: IV 0.3 mg/kg twice per week (36 μg total), vs vehicle
Protocol: as §3, §4

[6] = Dose escalation, intracerebral osmotic mini-pump, normal nontumor-bearing mice
Protocol: The doses of bortezomib used in these experiments were determined by injecting escalating doses of the drug intracerebrally (delivered by osmotic mini-pump) into normal, nontumor-bearing mice. […] In FIG. 4, treatment groups (n=6) were vehicle (saline-filled pump); bortezomib given IV (36 μg in total); bortezomib IT (low dose, 0.36 μg); bortezomib IT (medium dose, 1.2 μg); and bortezomib IT (high dose, 3.6 μg).

[7] = system: intracranial glioma tumor; assay: Histological investigation of tumor-bearing brains (H & E, TRA 1-85); assay type: in vivo, mice
Protocol: FIG. 6. […] Tumor-bearing animals were treated with intratumoral-administered bortezomib (A) or IV-administered-bortezomib (B). After 5 days the animals were euthanized, brains harvested, and stained with hematoxylin/eosin.
Tissues used for histological investigation were fixed in 10% formalin, embedded in paraffin, and stained with H & E. The antibody TRA-1-85/CD147 (RD Systems) was used to stain for human cells.

[8] = system: glioma stem cells and normal stem cells; settings: cited from earlier work

CC(C)C[C@H](NC(=O)[C@H](Cc1ccccc1)NC(=O)c1cnccn1)B(O)O [bortezomib, [(1R)-3-methyl-1-[[(2S)-3-phenyl-2-(pyrazine-2-carbonylamino)propanoyl]amino]butyl]boronic acid]
therapeutic benefit, Phase II trial (malignant gliomas / GBM; combination with tamoxifen, systemic, patients with malignant gliomas): no therapeutic benefit
benefit, Phase II clinical trial (malignant gliomas / GBM; combination with vorinostat, bortezomib IV, GBM): no benefit
survival vs vehicle [1]: no significant differences
IC50 [2]: 5 to 10 nM
tumor growth rate / tumor progression [3]: delayed tumor progression
tumor growth rate / tumor progression ([3]; listed as Bortezomib): significantly (p=0.041) decreased tumor growth rate
increase in survival ([4]; IT administration, median survival 23 to 37 days): approximately 40%
survival, IT vs IV (36 μg) ([4]; U251 intracranial, IT high dose 3.6 μg total, p=0.0022): significantly enhanced survival
survival, IT vs IV (36 μg) ([4]; U251 intracranial, IT low dose 0.36 μg total, p=0.1104): not significant
survival, IT vs IV (36 μg) ([4]; U251 intracranial, IT medium dose 1.2 μg total, p=0.0005): significantly enhanced survival
median survival time ([4]; U251 intracranial, high dose 3.6 μg total): 37 days
median survival time ([4]; U251 intracranial, medium dose 1.2 μg total): 34 days
survival vs vehicle ([4]; U251 intracranial, IV 0.3 mg/kg (36 μg total), 0.3 mg/kg): no significant differences in survival time; also recorded: not significant
proteasome activity in tumor-bearing brain vs vehicle (20S proteasome; 5 days, p=0.03): significantly reduced proteasome activity
proteasome activity in tumor-bearing brain vs vehicle (20S proteasome; 7 days, p=0.03): significantly reduced proteasome activity
proteasome activity in tumor-bearing brain vs vehicle (20S proteasome; 10 days, p=0.0048): significantly reduced proteasome activity
tumor growth rate [5]: significantly effective in delaying tumor growth
tumor growth rate ([5]; listed as Bortezomib): significantly (p=0.0145) decreased tumor growth rate
toxicity ([6]; 7.2 μg): toxic and fatal
toxicity ([6]; 18.0 μg): toxic and fatal
toxicity ([6]; 36.0 μg): toxic and fatal
tumor size (surface area), IV-treated animal relative to intratumoral-treated animal ([7]; Day 5, IV 36 μg total vs IT 3.6 μg total, H & E): approximately ten-fold larger
tumor cell invasion into mouse brain, IV-treatment compared to IT-treated ([7]; anti-human antibody TRA 1-85 staining): greater tumor cell invasion
microvessel densities vs vehicle-treated mice ([7]; data not shown): not significantly different
cytotoxicity ([8]; glioma stem cells): cytotoxic
cytotoxicity ([8]; normal stem cells): not toxic
